Results as given in publication PMC5428013, “Peptide-Au Clusters Induced Tumor Cells Apoptosis via Targeting Glutathione Peroxidase-1: The Molecular Dynamics Assisted Experimental Studies” (Scientific Reports, 2017).

Experiments:
A549 cells = experiment: Cell viability assay (CCK-8), A549; format: cell-based, human; conditions: A549, Au dose of 800 μM, 48 h, CCK-8; mean from three independent experiments
Protocol: Briefly, cells were prior cultured on 96-well plates (at the density of 5 × 10^3 cells/well) for 24 h to allow cells attachment. The cells were treated with different doses of these free peptides (0, 1, 4, 16, 64, 256, 1024 µM) and peptide-Au clusters (0, 50, 100, 200, 400, 800 µM in Au dose) for 48 h, respectively. The cells were washed three times with PBS and then incubated with fresh growth medium containing 10% (v/v) CCK-8 reagent for 1 h at 37 °C for cell viability assay. The absorbance was measured at 450 nm by using a microplate reader (SpectraMAX M2, Sunnyvale, California). Cell viability of untreated cells was set as 100%, and that of treated cells were expressed as a relative percentage of untreated cells. All data were shown as mean percentages ± standard deviation from three independent experiments.

GPx-1 [1] = experiment: GPx-1 enzyme activity suppression in buffer; format: biochemical, bovine; conditions: buffer, Au dose of 400 μM, 10 min, GPx Activity Colorimetric Assay Kit, NADPH absorbance at 340 nm
Text: The peptides (N2H-CCYGGPEEEEEVG-COOH (named P1), NH2-CCYGGPDDDEDVG-COOH (named P2) and NH2-CCYGGPEEVEEVG-COOH (named P3)) were chemically synthesized by a solid phase method (China Peptides Co. Ltd, Purity: 98%). Hydrogen tetrachloroaurate (III) (HAuCl4·4H2O) was purchased from Sinopharm Chemical Reagent Co. Ltd. Sodium hydroxide (NaOH), nitric acid (HNO3), hydrochloric acid (HCl) and hydrogen peroxide (H2O2) were purchased from Beijing Chemical Reagent Co., China. Human non-small cell lung carcinoma cells (A549 cells), Henrietta Lacks strain of cancer cells (Hela cells) and human colon adenocarcinoma cells (HCT-8 cells) were from Cancer Institute and Hospital, Chinese Academy of Medical Sciences. Fetal bovine serum (FBS) and trypsin-EDTA were obtained from Gibco, USA. Penicillin-streptomycin solution, cell culture medium DMEM and RPMI 1640 were purchased from Hyclone. Hoechst 33342, LysoTracker®Green DND-26, and CM-H2DCFDA were from Molecular Probes, USA. NucView™ 488 Caspase-3 Assay Kit was bought from Biotium, USA. 5,5′,6,6′-tetrachloro-1,1′,3,3′-tetraethylbenzimidazolocarbocyanine iodide (JC-1), cell lysis buffer for Western and IP, phenylmethanesulfonyl fluoride (PMSF) and BCA Protein Assay Kit were obtained from Beyotime Institute of Biotechnology, China. Protease inhibitor cocktail tablets were from Roche Diagnostics, GmbH, Mannheim, Germany. Cell counting kit-8 (CCK-8) reagents and Annexin V-FITC/Propidium (PI) Apoptosis Detection Kit were purchased from Dojindo Laboratories, Japan. GPx from bovine erythrocytes […] was provided by Sigma Aldrich, USA. GPx Activity Colorimetric Assay Kit was provided by Biovision, USA. Anti-GPx-1 antibody was offered by Abcam, UK. PARP antibody, caspase-3 antibody and β-actin antibody were offered by Cell Signaling Technology, USA. Amicon ultra centrifugal filter devices (Merck Millipore, MWCO: 10 kDa) were used for purification steps. Ultrapure Millipore (Mini-Q) water (18.2 MΩ) was used throughout the experiments. […]
Pure GPx (lyophilized powder, ≥300 units/mg protein) were diluted by GPx sample buffer and incubated with peptide-Au clusters (Au25P1_9, Au25P2_9 and Au25P3_9) at a series of Au dose (0, 25, 100, 400 μM) for 10 min, respectively. […] The GPx activity of untreated samples was set as 100%, and that of peptide-Au clusters treated samples were expressed as a relative percentage of untreated ones.
Figure S12. Peptide-Au clusters treated GPx-1 activity measured in buffer solution. The decrease in NADPH absorbance measured at 340 nm during the oxidation of NADPH to NADP is the indicative of GPx activity,^1, 2 which is in a dose dependent manner in tube experiments when treated with serial doses of peptide-Au clusters.

GPx-1 [2] = conditions: through interacting with selenocystein by forming a stable gold-Sec complex; cited from earlier work
Text: Glutathione peroxidase-1 (GPx-1), a crucial antioxidant selenoenzyme in mammalian cells, is selected as a model drug target for tumor treatment. Suppression of intracellular GPx-1 activity induces the accumulation of hydrogen peroxide (reactive oxygen species, ROS), which would render tumor cells susceptible to ROS-induced apoptosis, [20].

**Q.** For “CCYGGPEEVEEVG [Au25P3_9, Au25 cluster coated by nine P3 peptides (…)]”, which “cell viability (relative to untreated = 100%)” value (A549 cells) is on record?
**A.** The value was 71%.

**Q.** And the “GPx-1 activity (relative to untreated = 100%)” value (GPx-1 [1])?
**A.** The value was 29%.

**Q.** Which results are given for “CCYGGPDDDEDVG [Au25P2_9, Au25 cluster coated by nine P2 peptides (…)]”?
**A.** cell viability (relative to untreated = 100%) (A549 cells): 53%; GPx-1 activity (relative to untreated = 100%) (GPx-1 [1]): 16%

**Q.** With `O=C(O)CC([S-])C(=O)O.[Au+]` (stereo not drawn) [gold thiomalate] as the compound, how does the “inhibition of GPx-1 activity” value (GPx-1 [2]) read?
**A.** The value was “can inhibit GPx-1 activity”.

**Q.** Which “inhibition of GPx-1 activity” value (GPx-1 [2]) does the source give for `CC(=O)OC[C@H]1O[C@@H]([S-])[C@H](OC(C)=O)[C@@H](OC(C)=O)[C@@H]1OC(C)=O.CCP(CC)CC.[Au+]` [auranofin] here?
**A.** Its value is “can inhibit GPx-1 activity”.
